Experimental data published in US7700648B2, “Ester compound and its use” (Sumitomo Chemical Company Limited, priority 2004, dated 2010).

Test system: common mosquitoes (Culex pipiens pallens)
Assay: Knock-down test on common mosquitoes by oil solution spray in a cubic chamber
Format: in vivo
Conditions: 0.7 ml of 0.025% oil solution sprayed in 70 cm cubic chamber; ten female Culex pipiens pallens; counted for 10 minutes
Description: A solution of 0.025 part of the present compound (1) dissolved with 10 parts of dichloromethane was mixed with 89.975 parts of deodorized kerosene to give a 0.025% oil solution.
Ten female common mosquitoes (Culex pipiens pallens) were left in a cubic chamber (70 cm at side). Seven-tenths (0.7) ml of the 0.025% oil solution of the present compound (1) was sprayed with a spray gun at a pressure of 8.8×10^4 Pa from a small window on the side of the chamber. Then, the number of the knocked-down insects was counted at times for 10 minutes. The time (KT50) for knocking down half of the tested insects was calculated from the result.
For the comparison, 5-benzyl-3-furylmethyl 1R-trans-2,2-dimethyl-3-((E)-2-cyano-3-ethoxy-3-oxo-1-propenyl)cyclopropanecarboxylate (hereinafter, referred to as the comparison compound) was also subjected to the above mentioned test. The test was done twice for one compound.

Row | SMILES | KT50 (time for knocking down half of the tested insects)
1 | CCOC(=O)/C(C#N)=C/[C@@H]1[C@@H](C(=O)OCc2coc(Cc3ccccc3)c2)C1(C)C (relative stereo) [The comparison compound, 5-benzyl-3-furylmethyl 1R-trans-2,2-dimethyl-3-((E)-2-cyano-3-ethoxy-3-oxo-1-propenyl)cyclopropanecarboxylate] | 6.1 min
2 | COC(=O)/C(C#N)=C/C1C(C(=O)OCc2coc(Cc3ccccc3)c2)C1(C)C (stereo not drawn) [The present compound (1), 5-benzyl-3-furylmethyl 1R-trans-2,2-dimethyl-3-((E)-2-cyano-3-methoxy-3-oxo-1-propenyl)cyclopropan ecarboxylate] | 0.7 min
